How the values were obtained:
[1] = test system: NRAS mutant melanoma cell lines; assay: short-term viability assay (CellTiter-Blue, 3 days); type: cell-based, human; conditions: treatment-naïve NRAS mutant melanoma cell lines; ROCK inhibitor added to MAPK/ERK pathway inhibitor
Procedure: FIG. 1A: NRAS mutant melanoma cell lines are sensitive to combinations of ROCK and MEK or ERK inhibitors; Cells were treated with a dilution series of ROCK inhibitor (left panel), MEK inhibitor (middle panel) or ERK inhibitor (right panel) either alone or in combination with MEK/ERK/ROCK inhibitor as indicated. After 3 days total cell numbers were determined with a Cell Titer-Blue assay. The y-axis represents the percentage of living cells.
(§1) For short-term viability assays of inhibitors, cells were plated in 96-well format and treated on the next day with a dilution range of one inhibitor with or without a second inhibitor with a concentration as mentioned in the figure. After 3 days, cells were incubated with CellTiter-Blue (Promega) and fluorescence was measured with a TECAN Infinite M200 microplate reader. For proliferation assays, equal cell numbers were plated on 6 well dishes. The next day, cells were treated with one or more inhibitors and refreshed with medium with inhibitors every 3-4 days. […]
To model inhibitor sensitivity of treatment-naïve NRAS mutant melanoma we made use of a panel of human metastatic melanoma cell lines carrying activating mutations in NRAS codon 61 (R, K, N), including cell lines available in the prior art. […] Presence of the NRAS mutation and absence of exon 15 BRAF mutations has been determined by conventional sequencing. […]

[2] = test system: NRAS mutant melanoma cells SK-MEL-147; assay: SK-MEL-147 xenograft in NOD/SCID mice; type: in vivo; conditions: GSK1120212 0.05 mg/kg or GSK269962A 10 mg/kg alone, oral gavage once daily
Procedure: Melanoma cells (5*10^5 SK-MEL-147) were subcutaneously injected into both flanks of NOD/SCID mice. Tumor sizes were measured with a caliper and tumor volume was calculated by the formula (a*b^2)/2 with ‘a’ being the longest diameter and ‘b’ the respective perpendicular diameter of the tumor. After the tumors reached a size of 20-100 mm3, mice received by oral gavage either vehicle, GSK1120212 (MEKi), (0.05 mg/kg), 10 mg/kg GSK269962A (ROCKi) or both drugs. N=10 for each group, except for ROCKi n=8. Error bars represent standard error of the mean (SEM).
Six to ten week old male NOD/SCID mice were subcutaneously injected with 5*10^5 cells into both flanks. After the tumors reached a size of 50-150 mm^3 mice were treated with 0.05 or 0.1 mg/kg MEK inhibitor (GSK1120212) and/or ROCK inhibitor (GSK266962A, 10 mg/kg). Both GSK1120212 and GSK269962A were applied by oral gavage (in 5% Tween80, 3.25% ethanol, DMSO for GSK1120212 and in 10% Tween80, 6.5% ethanol, 10% DMSO for GSK266962A). Tumors were measured twice a week with a caliper. Tumor volume was calculated by the formula (a*b2)/2, with ‘a’ being the longest diameter and b′ the respective perpendicular diameter of the tumor. Mice were euthanized by CO2 when tumors reached a volume of 1 cm3, according to a protocol approved by the Institutional Animal Experiment Ethics Committee. […]

[3] = test system: BRAF mutant melanoma patients; conditions: cited from earlier work
[4] = test system: NRAS mutant melanoma patients; conditions: cited from earlier work
MEK = conditions: cited from earlier work
[5] = test system: ERK inhibitor resistant sublines of BLM; assay: inhibitor sensitivity of resistant sublines versus parental line; type: cell-based, human; conditions: sublines grown in 1 μM SCH772984
Procedure: NRAS Mutation: Q61R BLM, SK-MEL-147. BRAF mutation: Mel 95.03, mel 888. All cell lines were cultured in Dulbecco's modified Eagle's Medium (DMEM, Gibco) supplemented with 9% fetal calf serum (Sigma) and 1% glutamine. To generate MEK and ERK inhibitor resistant sublines, cells were plated on 10 cm dishes. Medium containing 1 μM SCH772984 was added the next day and changed twice a week. After 2 weeks colonies were picked and expanded in the presence of the inhibitor. In addition, multiple colonies per 10 cm dish were trypsinized and expanded to obtain resistant pools.
as §1, with “days. Cells were stained with crystal violet after 7-11 days of treatment.” for “days.”
We assessed sensitivity to a panel of other inhibitors including ROCK inhibitors but observed mainly slight differences.

c-Raf = c-Raf (Homo sapiens, UniProt P04049); conditions: B-Raf less than c-Raf; cited from earlier work
Sequence of c-Raf (P04049 whole entry): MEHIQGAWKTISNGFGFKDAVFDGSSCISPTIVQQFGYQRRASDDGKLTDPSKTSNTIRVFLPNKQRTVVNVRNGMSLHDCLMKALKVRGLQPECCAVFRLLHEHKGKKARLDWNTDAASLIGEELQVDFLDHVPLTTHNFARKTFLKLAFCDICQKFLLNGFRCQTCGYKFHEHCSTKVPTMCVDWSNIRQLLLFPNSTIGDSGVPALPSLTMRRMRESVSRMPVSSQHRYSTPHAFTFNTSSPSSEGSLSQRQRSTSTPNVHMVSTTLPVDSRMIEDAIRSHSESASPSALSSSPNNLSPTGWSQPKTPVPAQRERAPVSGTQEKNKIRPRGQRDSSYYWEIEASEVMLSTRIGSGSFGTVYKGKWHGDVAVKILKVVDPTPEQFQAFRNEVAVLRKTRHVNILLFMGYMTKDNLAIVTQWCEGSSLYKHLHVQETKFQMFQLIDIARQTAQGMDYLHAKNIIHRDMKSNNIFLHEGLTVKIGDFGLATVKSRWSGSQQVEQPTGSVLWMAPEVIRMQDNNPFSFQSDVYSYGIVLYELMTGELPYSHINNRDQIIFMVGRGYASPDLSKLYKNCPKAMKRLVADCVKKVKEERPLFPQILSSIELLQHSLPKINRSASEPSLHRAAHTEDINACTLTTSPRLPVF

O=S(=O)(c1cccc2cnccc12)N1CCCNCC1 [Fasudil]
sensitization to MEK or ERK inhibitors [1]: sensitizers

CCn1c(-c2nonc2N)nc2cnc(Oc3cccc(NC(=O)c4ccc(OCCN5CCOCC5)cc4)c3)cc21 [GSK269962A]
sensitization to MEK or ERK inhibitors [1]: sensitizers
effect as single agent [2]: only a weak effect as single agents

Cn1cnc2c(F)c(Nc3ccc(Br)cc3F)c(C(=O)NOCCO)cc21 [MEK162]
median time to develop resistance [3]: 3.3 months
median time to develop resistance [4]: 3.7 months

O=C(NOCC1CC1)c1ccc(F)c(F)c1Nc1ccc(I)cc1Cl [PDI 84352]
specificity and potency compared to other known MEK inhibitors (MEK): high degree of specificity and potency

Oc1cccc(-c2nc(N3CCOCC3)c3oc4ncccc4c3n2)c1 [PI-103]
sensitivity of resistant sublines compared with parental line [5]: as sensitive to the dual PI3K/mTOR inhibitor PI-103 as the parental line

Cc1ccc(NC(=O)c2cccc(N(C)C)c2)cc1NC(=O)c1ccc(O)cc1 [ZM 336372]
potency for B-Raf relative to c-Raf (c-Raf): c-Raf, (B-Raf 10fold
